Reference: US11459586B2, “Methods for increasing efficiency of nuclease-mediated gene editing in stem cells” (President and Fellows of Harvard College, priority 2016, dated 2022)
Like-named read-outs stand apart in the source and are kept apart here. Peptide text beside a SMILES is read from it. * marks the point of attachment. Cbz = O=C(OCc1ccccc1)*; CH2F = FC*

Legend:
human iPSC [1] = type: cell-based; conditions: for rescue of hiPSC from cell death (anoikis) after nucleofection: viable cells two days after nucleofection, sgRNA plasmid or pUC19 control
Description: FIGS. 10A-F. Effect of Caspase and p38 MAPK inhibitors on survival and gene targeting of human iPSC. FIG. 10A and FIG. 10B. Mouse Thy1 gene targeting scheme. Human iPSC were nucleofected with the mThy1 targeting vector, Cas9 nuclease, and Thy1 sgRNA expressing plasmid or pUC19 empty vector. Nucleofected cells were evenly divided and plated onto plain media (mTeSR1+10 μM Y-27632 ROCK inhibitor), or media supplemented with the indicated chemical inhibitor. For specific caspase inhibitors, the principal caspase they target is noted in parentheses. […] FIG. 10C. Two days after nucleofection, viable cells were counted. Error bars indicate s.e.m. of technical duplicates. Lines mark the count levels for nucleofected cells in plain media with or without sgRNA. FIG. 10D. Five days after transfection, cells were analyzed by flow cytometry for mThy1 and hThy1 expression. The percent of mThy1^+hThy1^− (bottom of each bar) and mThy1^+hThy1^+ (top of each bar) cells of live single cells is indicated. Lines mark the levels for cells in plain media. […] FIG. 10E. FACS plots of human iPSC transfected with the mThy1 targeting vector, Cas9 nuclease, and Thy1 Left and Right sgRNAs. Cells were subsequently cultured for 5 days in plain media±50 μM zVAD and ±10 μM SB203580. FIG. 10F. Human iPSC cultures were single cell FACS sorted into 96-well tissue culture plates containing a MEF feeder layer and hES media supplemented with SMC4 inhibitors±50 μM zVAD for eight days. Ten days after sorting, the number of surviving iPSC colonies was counted (from 190 cells sorted). PGP1 hiPSC lines created using retroviral vectors or non-integrating methods were both tested.
Pluripotency of iPSC cultures was verified by flow cytometry staining using anti-human Tra-1/60 PE (TRA-1-60, BD) and anti-human Oct3/4 eFluor 660 (EM92, eBioscience) with the fixation buffer sold under the trademark BD CYTOFIX™ and permeabilization buffer sold under the trademark PHOSFLOW™ Perm/Wash buffers. Human g-band karyotype analysis was done by Cell Line Genetics. Viable cell counts were measured with the cell analyzer sold under the trademark MUSE® Count & Viability Assay kit (EMD Millipore). Anti-human HLA-A2 APC (BB7.2) and anti-human HLA-BC PE (B1.23.2) were purchased from eBioscience. Human iPSC cultures were treated with 50 ng/ml recombinant interferon gamma (eBioscience) for 2 days prior to HLA staining.
Plasmids were purified using the plasmid DNA purification kit sold under the trademark Qiagen ENDOFREE® Plasmid Maxi kit and nucleofected into iPSC cells using the Lonza 4D-Nucleofector X unit (Buffer P3, Program CB-150). For each 20 μl nucleofection reaction, 0.2-0.5×106 iPSC were transfected with up to 4 μg of plasmid DNA. Post-nucleofection, iPSC were plated onto solubilized basement membrane matrix secreted by Engelbreth-Holm-Swarm (EHS) mouse sarcoma cells sold under the trademark […]®-coated wells containing feeder-free cell culture medium sold under the trademark MTESR1™ media with 10 μM Y-27632 plus other chemical inhibitors when noted. Later experiments included 50 μM zVAD-fmk (Bachem) for 1 day and 10 μM SB203580 (Biovision) for 4-5 days post transfection (see FIGS. 5, 6, 11, and 12). For FIG. 6 (ssODN transfection), 200 ng/ml recombinant B 18R (eBioscience), was also added to the culture for 5 days post transfection.
The following inhibitors were added to the hiPSC culture at the concentrations and time periods indicated in the Examples below. • 1. p53 or Bax inhibitors: cyclic pifithrin α (StemCell Technologies); pifithrin (Tocris); peptide V5, peptide control, iMAC1 and iMAC2 (EMD Millipore); N-acetyl cysteine and 4-hydroxy TEMPO (TEMPOL) (Sigma). • 2.

human iPSC [2] = test: mThy1 gene targeting in hiPSC with chemical inhibitors added after nucleofection (flow cytometry); type: cell-based; conditions: for mThy1 gene targeting efficiencies: PGP1 hiPSC, administered after plasmid nucleofection, indicated concentrations (FIG. 9D)
Description: FIGS. 9A-G. Effects of chemical and genetic inhibitors on mThy1 gene targeting in hiPSC. FIG. 9A. Mouse Thy1 gene targeting scheme. Human iPSC were nucleofected with the mThy1 targeting vector system plasmids and analyzed by flow cytometry five days later. The percentages of mThy1^+hThy1^−, mThy1^+hThy1^+, and mThy1^−hThy1^− cells for each sample (gated on live single cells) are graphed. Lines mark the percentage values for the control sample. FIGS. 9B-9D. Human iPSC were nucleofected with: 2 μg mThy1 targeting vector; 0.5 μg Cas9 plasmid; and 1.5 μg of sgRNA plasmids. The sample was divided into multiple wells and cultured in plain media (mTeSR1+10 μM Y-27632 ROCK inhibitor) supplemented with the indicated chemical inhibitor for three days. 20 μM pifithrin α, 200 μM peptide V5 (VPMLK, SEQ ID NO:31), 200 μM peptide control (IPMIK, SEQ ID NO:32), 50 μM TEMPOL, or the indicated concentrations of SCR7 or L755507 were used. FIG. 9B, mThy1^+hThy1^− (bottom portion of each bar in each graph), mThy1^+hThy1^+ (top portion of each bar in each graph). FIG. 9C, mThy1^+hThy1^− (bottom portion of each bar in each graph), mThy1^+hThy1^+ (top portion of each bar in left and center graphs, middle portion of each bar in right graph), and mThy1^−hThy1^− (top portion of each bar in right graph). FIG. 9D, mThy1^+hThy1^− (bottom portion of each bar in each graph), mThy1^+hThy1^+ (center portion of each bar in each graph), and mThy1^−hThy1^− (top portion of each bar in each graph). FIGS. 9E-9F. Human iPSC were nucleofected with: 2 μg mThy1 targeting vector plasmid; 0.5 μg Cas9 plasmid; 1 μg of sgRNA plasmids; and 0.5 μg of plasmid expressing the indicated DNA repair gene or pUC19 control (“Cas9 only”). For FIG. 9E, cultures were treated with 50 μM zVAD and 10 μM SB203580 post transfection. mThy1^+hThy1^− (bottom portion of each bar in each graph), mThy1^+hThy1^+ (top portion of each bar in left and center graphs, middle portion of each bar in right graph), and mThy1^−hThy1^− (top portion of each bar in right graph). FIG. 9F, mThy1^+hThy1^− (bottom portion of each bar in each graph), mThy1^+hThy1^+ (top portion of each bar in left and center graphs, middle portion of each bar in right graph), and mThy1^−hThy1^− (top portion of each bar in right graph). FIG. 9G. Human iPSC were nucleofected with: 2 μg mThy1 targeting vector plasmid; 0.5 μg Cas9 plasmid; and 1.5 μg of sgRNA plasmids. The indicated viral inhibitor genes were cloned into the Cas9 expression vector following an IRES sequence. Cultures were supplemented with 50 μM zVAD post transfection. mThy1^+hThy1^− (bottom portion of each bar in each graph), mThy1^+hThy1^+ (top portion of each bar in left and center graphs, middle portion of each bar in right graph), and mThy1^−hThy1^− (top portion of each bar in right graph).
FIGS. 10A-F. Effect of Caspase and p38 MAPK inhibitors on survival and gene targeting of human iPSC. FIG. 10A and FIG. 10B. Mouse Thy1 gene targeting scheme. Human iPSC were nucleofected with the mThy1 targeting vector, Cas9 nuclease, and Thy1 sgRNA expressing plasmid or pUC19 empty vector. Nucleofected cells were evenly divided and plated onto plain media (mTeSR1+10 μM Y-27632 ROCK inhibitor), or media supplemented with the indicated chemical inhibitor. For specific caspase inhibitors, the principal caspase they target is noted in parentheses. As observed in previous reports, most of the nuclease-mediated cell death occurred between days 1-2 post transfection, and the proportions of mThy1^+ cells remained stable beyond day 5. FIG. 10C. Two days after nucleofection, viable cells were counted. Error bars indicate s.e.m. of technical duplicates. Lines mark the count levels for nucleofected cells in plain media with or without sgRNA. FIG. 10D. Five days after transfection, cells were analyzed by flow cytometry for mThy1 and hThy1 expression. The percent of mThy1^+hThy1^− (bottom of each bar) and mThy1^+hThy1^+ (top of each bar) cells of live single cells is indicated. […]

[3] = 10 μM SB203580 added to hiPSC media after nucleofection

C[S+]([O-])c1ccc(-c2nc(-c3ccncc3)c(-c3ccc(F)cc3)[nH]2)cc1 (stereo not shown) [SB203580]
cell survival (human iPSC [1]; [3]): did not affect cell survival
gene targeting efficiency (human iPSC [2]; [3]): did enhance gene targeting efficiency

CC1(C)CC(O)CC(C)(C)N1[O] [TEMPOL, 4-hydroxy TEMPO]
mThy1 gene targeting in hiPSC (human iPSC [2]; 50 μM TEMPOL in media for three days after nucleofection): no effect

COC(=O)CC[C@H](NC(=O)[C@H](CC(C)C)NC(=O)OCc1ccccc1)C(=O)N[C@@H](Cc1cnc[nH]1)C(=O)N[C@@H](CC(=O)OC)C(=O)CF [zLEHD-fmk] (Cbz-LE(OMe)HD(OMe)-CH2F)
toxicity to hiPSC (human iPSC [1]; after nucleofection, higher concentration than 25 μM (FIG. 10C)): very toxic
toxicity to hiPSC (human iPSC [1]; lower concentration, 25 μM): did not show as much

O=c1[nH]c(=S)[nH]c(N=Cc2ccccc2)c1N=Cc1ccccc1 [SCR7]
mThy1 gene targeting efficiencies (human iPSC [2]): neither the DNA ligase IV inhibitor SCR7 (Maruyama et al., 2015) nor the β3-adrenergic receptor agonist L755507 (Yu et al., 2015) improved mThy1 gene targeting efficiencies

COC(=O)CC[C@H](NC(=O)[C@H](CC(=O)OC)NC(=O)OCc1ccccc1)C(=O)N[C@H](C(=O)N[C@@H](CC(=O)OC)C(=O)CF)C(C)C [zDEVD-fmk]
anoikis rescue (human iPSC [1]; lower concentration, 25 μM): did not show as much anoikis rescue
rescue of hiPSC from cell death (anoikis) after nucleofection (human iPSC [1]): prevented anoikis

COC(=O)C[C@H](NC(=O)[C@H](C)NC(=O)[C@@H](NC(=O)OCc1ccccc1)C(C)C)C(=O)CF [zVAD(OMe)-fmk] (Cbz-Val-Ala-Asp(OMe)-CH2F)
rescue of hiPSC from cell death (anoikis) after nucleofection (human iPSC [1]): rescued cells transfected with an sgRNA, and also those transfected with the pUC19 control

VPMLK (peptide V5)
mThy1 gene targeting in hiPSC (human iPSC [2]; 200 μM peptide V5 in media for three days after nucleofection): only a very slight improvement in gene targeting

CCCCCCNC(=O)Nc1ccc(S(=O)(=O)Nc2ccc(CCNC[C@H](O)COc3ccc(O)cc3)cc2)cc1 [L755507]
mThy1 gene targeting efficiencies (human iPSC [2]): neither the DNA ligase IV inhibitor SCR7 (Maruyama et al., 2015) nor the β3-adrenergic receptor agonist L755507 (Yu et al., 2015) improved mThy1 gene targeting efficiencies

Cc1ccc(C(=O)Cn2c3c(sc2=N)CCCC3)cc1 [Pifithrin α]
mThy1 gene targeting in hiPSC (human iPSC [2]; 20 μM pifithrin α in media for three days after nucleofection): did not enhance hiPSC gene targeting

COC(=O)CC[C@H](NC(=O)[C@H](C)NC(=O)OCc1ccccc1)C(=O)N[C@H](C(=O)N[C@@H](CC(=O)OC)C(=O)CF)C(C)C [zAEVD-fmk] (Cbz-AE(OMe)VD(OMe)-CH2F)
rescue of hiPSC from cell death (anoikis) after nucleofection (human iPSC [1]): prevented anoikis
